# Source: PubChem BioAssay AID1963848 (Molecular Pharmacology Branch, DTP, NCI, 2024)
# pIC50: −log10 of the molar value.
# Test system: 379773-124-R-J2-PDC spheroid viability
# Assay: Anticancer human tumor 379773-124-R-J2-PDC patient-derived endometrial carcinoma cell line growth inhibition [POLQ]
# Settings: spheroids with HUVEC and MSC; for pIC50: curve of first compound; for viability, T/C: stronger effect = lower value
# Summary of the method: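 Patient-derived tumour cells were co-cultured with HUVEC and mesenchymal stem cells as multicellular spheroids at 37 °C. They were treated with POLQ inhibitors (novobiocin, ART-558, RP6685) alone or combined with other agents. Top concentrations were at or near clinical Cmax (otherwise 10 microM; SN-38 at 1 microM), decreasing in half-log steps.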
# [1] = second compound 0.0316 µM, first compound 0.0316 µM
# [2] = second compound 0.0316 µM, first compound 0.1 µM
# [3] = second compound 0.0316 µM, first compound 0.316 µM
# [4] = second compound 0.0316 µM, first compound 1 µM
# [5] = second compound 0.0316 µM, first compound 3.16 µM
# [6] = second compound 0.0316 µM, first compound 10 µM
# [7] = second compound 0.1 µM, first compound 0.0316 µM
# [8] = second compound 0.1 µM, first compound 0.1 µM
# [9] = second compound 0.1 µM, first compound 0.316 µM
# [10] = second compound 0.1 µM, first compound 1 µM
# [11] = second compound 0.1 µM, first compound 3.16 µM
# [12] = second compound 0.1 µM, first compound 10 µM
# [13] = second compound 0.316 µM, first compound 0.0316 µM
# [14] = second compound 0.316 µM, first compound 0.1 µM
# [15] = second compound 0.316 µM, first compound 0.316 µM
# [16] = second compound 0.316 µM, first compound 1 µM
# [17] = second compound 0.316 µM, first compound 3.16 µM
# [18] = second compound 0.316 µM, first compound 10 µM
# [19] = second compound 1 µM, first compound 0.0316 µM
# [20] = second compound 1 µM, first compound 0.1 µM
# [21] = second compound 1 µM, first compound 0.316 µM
# [22] = second compound 1 µM, first compound 1 µM
# [23] = second compound 1 µM, first compound 3.16 µM
# [24] = second compound 1 µM, first compound 10 µM
# [25] = second compound 3.16 µM, first compound 0.0316 µM
# [26] = second compound 3.16 µM, first compound 0.1 µM
# [27] = second compound 3.16 µM, first compound 0.316 µM
# [28] = second compound 3.16 µM, first compound 1 µM
# [29] = second compound 3.16 µM, first compound 3.16 µM
# [30] = second compound 3.16 µM, first compound 10 µM
# [31] = second compound 10 µM, first compound 0.0316 µM
# [32] = second compound 10 µM, first compound 0.1 µM
# [33] = second compound 10 µM, first compound 0.316 µM
# [34] = second compound 10 µM, first compound 1 µM
# [35] = second compound 10 µM, first compound 3.16 µM
# [36] = second compound 10 µM, first compound 10 µM
# 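Note: spheroids exposed to drugs for seven days before readout.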
# 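Throughout, for viability, T/C: percent viability relative to DMSO vehicle control taken as 100%.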
compound,measurement,setting,value
CC1COCCN1c1cc(C2(O)CC3CCC(C2)O3)c2cnn(-c3ccn[nH]3)c2n1 (stereo unspecified) + COC1C(OC(N)=O)C(O)C(Oc2ccc3c(O)c(NC(=O)c4ccc(O)c(CC=C(C)C)c4)c(=O)oc3c2C)OC1(C)C,pIC50,second compound 0.0316 µM,7.18
same,pIC50,second compound 0.1 µM,7.00
same,pIC50,second compound 0.316 µM,6.99
same,pIC50,second compound 1 µM,7.12
same,pIC50,second compound 3.16 µM,7.06
same,pIC50,second compound 10 µM,7.12
same,"viability, T/C",[1],74.8%
same,"viability, T/C",[2],36.6%
same,"viability, T/C",[3],14.5%
same,"viability, T/C",[4],10.8%
same,"viability, T/C",[5],7.52%
same,"viability, T/C",[6],2.19%
same,"viability, T/C",[7],82.9%
same,"viability, T/C",[8],49.9%
same,"viability, T/C",[9],11.2%
same,"viability, T/C",[10],8.68%
same,"viability, T/C",[11],7.3%
same,"viability, T/C",[12],2.55%
same,"viability, T/C",[13],90%
same,"viability, T/C",[14],51.2%
same,"viability, T/C",[15],12.9%
same,"viability, T/C",[16],10.9%
same,"viability, T/C",[17],6.18%
same,"viability, T/C",[18],2.42%
same,"viability, T/C",[19],77.8%
same,"viability, T/C",[20],41.4%
same,"viability, T/C",[21],11.6%
same,"viability, T/C",[22],10.2%
same,"viability, T/C",[23],6.65%
same,"viability, T/C",[24],1.98%
same,"viability, T/C",[25],71.9%
same,"viability, T/C",[26],47%
same,"viability, T/C",[27],11.7%
same,"viability, T/C",[28],9.21%
same,"viability, T/C",[29],7.19%
same,"viability, T/C",[30],2.23%
same,"viability, T/C",[31],75.4%
same,"viability, T/C",[32],42.4%
same,"viability, T/C",[33],10.3%
same,"viability, T/C",[34],9.86%
same,"viability, T/C",[35],7.38%
same,"viability, T/C",[36],2.73%
O=C(Nc1ccc(O)c(NS(=O)(=O)c2ccc(F)cc2)c1)c1ccc(-c2ccccc2)cc1 + COC1C(OC(N)=O)C(O)C(Oc2ccc3c(O)c(NC(=O)c4ccc(O)c(CC=C(C)C)c4)c(=O)oc3c2C)OC1(C)C,pIC50,second compound 0.0316 µM,< 5.00
same,pIC50,second compound 0.1 µM,< 5.00
same,pIC50,second compound 0.316 µM,< 5.00
same,pIC50,second compound 1 µM,< 5.00
same,pIC50,second compound 3.16 µM,< 5.00
same,pIC50,second compound 10 µM,< 5.00
same,"viability, T/C",[1],88.1%
same,"viability, T/C",[2],79.6%
same,"viability, T/C",[3],87.4%
same,"viability, T/C",[4],75%
same,"viability, T/C",[5],82.5%
same,"viability, T/C",[6],76.2%
same,"viability, T/C",[7],83.5%
same,"viability, T/C",[8],77.2%
same,"viability, T/C",[9],99.9%
same,"viability, T/C",[10],79.5%
same,"viability, T/C",[11],75.8%
same,"viability, T/C",[12],74%
same,"viability, T/C",[13],82%
same,"viability, T/C",[14],92.8%
same,"viability, T/C",[15],95.6%
same,"viability, T/C",[16],73.4%
same,"viability, T/C",[17],86.4%
same,"viability, T/C",[18],67.1%
same,"viability, T/C",[19],95.1%
same,"viability, T/C",[20],73.5%
same,"viability, T/C",[21],79.8%
same,"viability, T/C",[22],79%
same,"viability, T/C",[23],83.9%
same,"viability, T/C",[24],70.1%
same,"viability, T/C",[25],79.2%
same,"viability, T/C",[26],88.2%
same,"viability, T/C",[27],77.9%
same,"viability, T/C",[28],80.7%
same,"viability, T/C",[29],90.3%
same,"viability, T/C",[30],83.3%
same,"viability, T/C",[31],84.4%
same,"viability, T/C",[32],78.9%
same,"viability, T/C",[33],80.7%
same,"viability, T/C",[34],80.4%
same,"viability, T/C",[35],75.3%
same,"viability, T/C",[36],74.6%
COc1cccc2c1C(=O)c1c(O)c3c(c(O)c1C2=O)CC(O)(C(=O)CO)CC3OC1CC(N)C(O)C(C)O1 (stereo unspecified) + Cc1cccc(N(C)C(=O)C2C(O)CCN2c2nc(C)cc(C(F)(F)F)c2C#N)c1,pIC50,second compound 0.0316 µM,7.23
same,pIC50,second compound 0.1 µM,7.20
same,pIC50,second compound 0.316 µM,7.28
same,pIC50,second compound 1 µM,7.27
same,pIC50,second compound 3.16 µM,7.32
same,pIC50,second compound 10 µM,> 7.50
same,"viability, T/C",[1],80.6%
same,"viability, T/C",[2],22%
same,"viability, T/C",[3],9.56%
same,"viability, T/C",[4],6.15%
same,"viability, T/C",[5],0.89%
same,"viability, T/C",[6],0.14%
same,"viability, T/C",[7],82.8%
same,"viability, T/C",[8],28.3%
same,"viability, T/C",[9],9.45%
same,"viability, T/C",[10],5.6%
same,"viability, T/C",[11],1.37%
same,"viability, T/C",[12],0.84%
same,"viability, T/C",[13],70.5%
same,"viability, T/C",[14],23.1%
same,"viability, T/C",[15],7.91%
same,"viability, T/C",[16],6.47%
same,"viability, T/C",[17],2%
same,"viability, T/C",[18],1.9%
same,"viability, T/C",[19],74.8%
same,"viability, T/C",[20],20.8%
same,"viability, T/C",[21],9.58%
same,"viability, T/C",[22],5.67%
same,"viability, T/C",[23],0.65%
same,"viability, T/C",[24],1.38%
same,"viability, T/C",[25],69.5%
same,"viability, T/C",[26],15.7%
same,"viability, T/C",[27],7.22%
same,"viability, T/C",[28],7.14%
same,"viability, T/C",[29],1.2%
same,"viability, T/C",[30],0.28%
same,"viability, T/C",[31],48.5%
same,"viability, T/C",[32],12%
same,"viability, T/C",[33],9.32%
same,"viability, T/C",[34],4.59%
same,"viability, T/C",[35],0.51%
same,"viability, T/C",[36],0.38%
